According to patent US5650428A, “Arylsulfonamide derivative and pharmaceutical compositions and use thereof” (NKK Corporation, priority 1993, dated 1997):
Where a name gives a salt, the structure may show the parent alone.

Experiments:
[1] = system: rat platelet; assay: Inhibitory activity of aggregation in rat platelet; type: cell-based; details: rat platelet rich plasma, arachidonic acid (final concentration 0.5 mM) as inducer; read-out: C: Inhibitory activity of aggregation in rat platelet (IC50; μM)
Procedure: (3) Inhibitory Activity of Aggregation in Rat Platelet The abdomen of etherized rat was open, and blood was taken from the abdominal arteries, using a sodium citrate solution (final concentration was 0.38%). The blood was centrifuged at 1100 rpm for 10 minutes, and the supernatent was separated as the platelet rich plasma. The plasma was further centrifuged at 2000 rpm for 15 minutes to obtain the supernatent as a platelet poor plasma. The platelet rich plasma (280 μl) was placed in a measuring cuvette and preincubated for 1 minute at 37° C. Then, a sample solution (10 μl) was added. After 2 minutes, an arachidonic acid solution (final concentration=0.5 mM) (10 μl) was added as an inducer. The change in light transmission was recorded for 5 minutes.

[2] = biological target: T1, thromboxane A2 (TxA2) receptor (Cavia porcellus, UniProt A0A286Y4I8); assay: TxA2 antagonist action by binding assay; details: washed guinea pig platelets, 1 nM [3H]-SQ29,548, 45 minutes at 25° C.
T1 construct: to obtain washed platelets; from tissue; host or cells: washed platelets of male Hartley guinea pigs
T1 sequence (A0A286Y4I8 1-347): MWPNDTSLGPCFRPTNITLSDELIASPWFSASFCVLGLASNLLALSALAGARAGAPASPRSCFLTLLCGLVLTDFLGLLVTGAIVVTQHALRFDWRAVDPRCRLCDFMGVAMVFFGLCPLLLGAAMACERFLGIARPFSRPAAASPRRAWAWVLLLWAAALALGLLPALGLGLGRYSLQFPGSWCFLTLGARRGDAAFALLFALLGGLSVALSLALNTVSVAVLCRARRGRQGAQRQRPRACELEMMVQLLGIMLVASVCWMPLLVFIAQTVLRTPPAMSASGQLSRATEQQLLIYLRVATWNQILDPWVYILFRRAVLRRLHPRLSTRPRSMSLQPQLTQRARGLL
Procedure: (1) TxA2 antagonist action by binding assay Guinea pigs (Hartley; male; body weight=approximately 500 g) were anesthetized with ether, and the blood was collected into sodium citrate (final concentration=0.38%). The preparation of platelets was carried out at room temperature. The platelet rich plasma was obtained by centrifugation at 980 rpm for 10 minutes. One tenth (1/10) amount of 77 mM-EDTA-Na (pH 7.4) was added to the platelet rich plasma, and the mixture was centrifuged for 10 minutes at 3000 rpm. The suspension was again centrifuged at 3000 rpm for 10 minutes. The precipitate was further resuspended in a suspension buffer (2) shown in Table 2 to obtain washed platelets. The number of platelets was counted by an automatic blood cell counter (Sysmex Microcellcounter F-800) and the sample was diluted with the suspension buffer to 4×10^8 cells/ml. The platelets, sample solution and labeled compounds were placed into plastic tubes in amounts (volumes) shown in the following Table 3, incubated for 45 minutes at 25° C., and then the mixture was filtered using a cell harvester (Brandel cell harvester M-24R) by a glass fiber filter (Whatman GF/B). After the filter was sufficiently dried, the scintillation was counted by a scintillation counter (Beckman LS5000TD). IC50 was calculated from (binding)/(control binding) ratio in the presence of an antagonist. [table 3: the next 10 blocks are its lines as printed, fixed-width]

Structure (SMILES): O=C(O)Cc1cccc(NC(=O)C(COC2CCCCO2)NS(=O)(=O)c2ccc(Cl)cc2)c1 (racemic) [Example 45, (RS)-N-(3-(carboxymethyl)phenyl)-2-(4-chlorobenzenesulfonylamino)-3-(tetrahydropyran-2-yloxy)propanamide]
- IC50 [1]: 3.6 µM
- IC50 [2]: 0.42 µM

Structure (SMILES): O=C(O)CCc1cccc(NC(=O)C(COC2CCCCO2)NS(=O)(=O)c2ccc(Cl)cc2)c1 (racemic) [Example 46, (RS)-N-(3-(carboxyethyl)phenyl)-2-(4-chlorobenzenesulfonylamino)-3-(tetrahydropyran-2-yloxy)propanamide]
- IC50 [1]: 1.7 µM
- IC50 [2]: 0.11 µM

Structure (SMILES): O=C(O)CCCNC(=O)C(COC1CCCCO1)NS(=O)(=O)c1ccc(Cl)cc1 (racemic) [Example 47, (RS)-N-(3-carboxypropyl)-2-(4-chlorobenzenesulfonylamino)-3-(tetrahydropyran-2-yloxy)propanamide]
- IC50 [1]: 1.5 µM

Structure (SMILES): O=C(O)CCCCNC(=O)C(COC1CCCCO1)NS(=O)(=O)c1ccc(Cl)cc1 (racemic) [Example 48, (RS)-N-(4-carboxybutyl)-2-(4-chlorobenzenesulfonylamino)-3-(tetrahydropyran-2-yloxy)propanamide]
- IC50 [1]: 1.7 µM

Structure (SMILES): O=C(O)CCCCCNC(=O)C(COC1CCCCO1)NS(=O)(=O)c1ccc(Cl)cc1 (racemic) [Example 49, (RS)-N-(5-carboxypentyl)-2-(4-chlorobenzenesulfonylamino)-3-(tetrahydropyran-2-yloxy)propanamide]
- IC50 [1]: 0.4 µM
- IC50 [2]: 1.7 µM

Structure (SMILES): O=C(O)CCCCCCNC(=O)C(COC1CCCCO1)NS(=O)(=O)c1ccc(Cl)cc1 (racemic) [Example 50, (RS)-N-(6-carboxyhexyl)-2-(4-chlorobenzenesulfonylamino)-3-(tetrahydropyran-2-yloxy)propanamide]
- IC50 [1]: 1.75 µM
- IC50 [2]: 1 µM

Structure (SMILES): O=C(O)Cc1ccc(NC(=O)C(COC2CCCCO2)NS(=O)(=O)c2ccccc2)cc1 (racemic) [Example 52, (RS)-2-(benzenesulfonylamino)-N-(4-(carboxymethyl)phenyl)-3-(tetrahydropyran-2-yloxy) propanamide]
- IC50 [1]: 1.7 µM
- IC50 [2]: 2.2 µM

Structure (SMILES): O=C(O)Cc1ccc(NC(=O)C(COC2CCCCO2)NS(=O)(=O)c2ccc(F)cc2)cc1 (racemic) [Example 53, (RS)-N-(4-(carboxymethyl)phenyl)-2-(4-fluorobenzenesulfonylamino)-3-(tetrahydropyran-2-yloxy)propanamide]
- IC50 [1]: 0.53 µM
- IC50 [2]: 0.2 µM

Structure (SMILES): Cc1ccc(S(=O)(=O)NC(COC2CCCCO2)C(=O)Nc2ccc(CC(=O)O)cc2)cc1 (racemic) [Example 56, (RS)-N-(4-(carboxymethyl)phenyl)-2-(4-methylbenzenesulfonylamino)-3-(tetrahydropyran-2-yloxy)propanamide]
- IC50 [1]: 1.7 µM
- IC50 [2]: 0.3 µM

Structure (SMILES): COc1ccc(S(=O)(=O)NC(COC2CCCCO2)C(=O)Nc2ccc(CC(=O)O)cc2)cc1 (racemic) [Example 57, (RS)-N-(4-(carboxymethyl)phenyl)-2-(4-methoxybenzenesulfonylamino)-3-(tetrahydropyran-2-yloxy)propanamide]
- IC50 [1]: 0.53 µM
- IC50 [2]: 0.15 µM

Structure (SMILES): O=C(O)CCCCCNC(=O)C(Cn1ccnc1)NS(=O)(=O)c1ccc(Cl)cc1 (racemic) [Example 100, (RS)-N-(5-carboxypentyl)-2-(4-chlorobenzenesulfonylamino)-3-(1H-imidazol-1-yl)propanamide hydrochloride]
- IC50 [1]: 1.7 µM

Structure (SMILES): O=C(O)CCCCNC(=O)C(COc1cccnc1)NS(=O)(=O)c1ccc(Cl)cc1 (racemic) [Example 119, (RS)-N-(4-carboxybutyl)-2-(4-chlorobenzenesulfonylamino)-3-(pyridin-3-yloxy)propanamide hydrochloride]
- IC50 [1]: 1.7 µM

Structure (SMILES): CCC(NS(=O)(=O)c1ccc(Cl)cc1)C(=O)Nc1ccc(CC(=O)O)cc1 (racemic) [Example 220, (RS)-N-(4-(carboxymethyl)phenyl)-2-(4-chlorobenzenesulfonylamino) butanamide]
- IC50 [1]: 0.53 µM

Structure (SMILES): CCCC(NS(=O)(=O)c1ccc(Cl)cc1)C(=O)Nc1ccc(CC(=O)O)cc1 (racemic) [Example 221, (RS)-N-(4-(carboxymethyl)phenyl)-2-(4-chlorobenzenesulfonylamino)pentanamide]
- IC50 [1]: 0.53 µM

Structure (SMILES): CCCCC(NS(=O)(=O)c1ccc(Cl)cc1)C(=O)Nc1ccc(CC(=O)O)cc1 (racemic) [Example 222, (RS)-N-(4-(carboxymethyl)phenyl)-2-(4-chlorobenzenesulfonylamino)hexanamide]
- IC50 [1]: 0.17 µM

Structure (SMILES): CCCCCCC(NS(=O)(=O)c1ccc(Cl)cc1)C(=O)Nc1ccc(CC(=O)O)cc1 (racemic) [Example 230, (RS)-N-(4-(carboxymethyl)phenyl)-2-(4-chlorobenzenesulfonylamino)octanamide]
- IC50 [1]: 0.55 µM

Structure (SMILES): CC(C)C(NS(=O)(=O)c1ccc(Cl)cc1)C(=O)Nc1ccc(CC(=O)O)cc1 (racemic) [Example 231, (RS)-N-(4-(carboxymethyl)phenyl)-2-(4-chlorobenzenesulfonylamino)-3-methylbutanamide]
- IC50 [1]: 1.7 µM

Structure (SMILES): CSCCC(NS(=O)(=O)c1ccc(Cl)cc1)C(=O)Nc1ccc(CCC(=O)O)cc1 (racemic) [Example 236, (RS)-N-(4-(2-carboxyethyl)phenyl)-2-(4-chlorobenzenesulfonylamino)-4-methylthiobutanamide]
- IC50 [2]: 0.42 µM

Structure (SMILES): O=C(O)CCc1ccc(NC(=O)C(CC2CCCCC2)NS(=O)(=O)c2ccc(Cl)cc2)cc1 (racemic) [Example 261, (RS)-N-(4-(2-carboxyethyl)phenyl)-2-(4-chlorobenzenesulfonylamino)-3-cyclohexylpropanamide]
- IC50 [1]: 2.3 µM

Structure (SMILES): CCCC[C@H](NS(=O)(=O)c1ccc(Cl)cc1)C(=O)Nc1ccc(CCC(=O)O)cc1 [Example 225, (S)-N-(4-(2-carboxyethyl)phenyl)-2-(4-chlorobenzenesulfonylamino)hexanamide]
- IC50 [1]: 0.56 µM

Structure (SMILES): CCCC[C@H](NS(=O)(=O)c1ccc(Br)cc1)C(=O)Nc1ccc(CC(=O)O)cc1 [Example 227, (S)-2-(4-bromobenzenesulfonylamino)-N-(4-(carboxymethyl)phenyl)hexanamide]
- IC50 [2]: 0.045 µM

Structure (SMILES): CCCC[C@H](NS(=O)(=O)c1ccc(Br)cc1)C(=O)Nc1ccc(CCC(=O)O)cc1 [Example 228, (S)-2-(4-bromobenzenesulfonylamino)-N-(4-(2-carboxyethyl)phenyl)hexanamide]
- IC50 [2]: 0.057 µM

Structure (SMILES): CCSCC[C@H](NS(=O)(=O)c1ccc(Cl)cc1)C(=O)Nc1ccc(CC(=O)O)cc1 [Example 243, (S)-N-(4-(carboxymethyl)phenyl)-2-(4-chlorobenzenesulfonylamino)-4-ethylthiobutanamide]
- IC50 [1]: 0.17 µM

Structure (SMILES): CCSCC[C@H](NS(=O)(=O)c1ccc(Br)cc1)C(=O)Nc1ccc(CC(=O)O)cc1 [Example 245, (S)-2-(4-bromobenzenesulfonylamino)-N-(4-(carboxymethyl)phenyl)-4-ethylthiobutanamide]
- IC50 [1]: 0.055 µM

Structure (SMILES): CCSCC[C@H](NS(=O)(=O)c1ccc(Br)cc1)C(=O)Nc1ccc(CCC(=O)O)cc1 [Example 246, (S)-2-(4-bromobenzenesulfonylamino)-N-(4-(2-carboxyethyl)phenyl)-4-ethylthio-butanamide]
- IC50 [2]: 0.034 µM

Structure (SMILES): O=C(O)Cc1ccc(NC(=O)[C@@H](Cc2ccccc2)NS(=O)(=O)c2ccc(Br)cc2)cc1 [Example 253, (R)-2-(4-bromobenzenesulfonylamino)-N-(4-(carboxymethyl)phenyl)-3-phenylpropanamide]
- IC50 [2]: 1.3 µM

Structure (SMILES): O=C(O)c1ccc(NC(=O)[C@H](Cc2ccccc2)NS(=O)(=O)c2ccc(Br)cc2)cc1 [Example 256, (S)-2-(4-bromobenzenesulfonylamino)-N-(4-carboxyphenyl)-3-phenylpropanamide]
- IC50 [1]: 0.17 µM

Structure (SMILES): O=C(O)Cc1ccc(NC(=O)[C@H](Cc2c[nH]c3ccccc23)NS(=O)(=O)c2ccc(Cl)cc2)cc1 [Example 258, (S)-N-(4-(carboxymethyl)phenyl)-2-(4-chlorobenzenesulfonylamino)-3-(3-indolyl) propanamide]
- IC50 [1]: 0.53 µM
